Data from paper PMC12133000 (PLOS One, 2025).
Read-outs that look alike come from different tables or passages of the source.

Experiment: Pharmacokinetics of rivaroxaban in rats after avitinib or gefitinib pretreatment
Type: in vivo, Sprague–Dawley (SD) rats
Conditions: male, Sprague-Dawley, rat, plasma, oral
Protocol: Eighteen male Sprague–Dawley (SD) rats weighing 300 ± 20 g were provided by the Experimental Animal Center of Wenzhou Medical University (Wenzhou, China) and kept under controlled conditions at a temperature of 23 ± 2 °C, relative humidity of 50 ± 10%, and 12 h light–dark cycle. Eighteen male SD rats were randomly assigned to three groups: avitinib, gefitinib, and control, with six rats per group. Prior to the experiment, the rats were not administered any other medications and fasted for 12 h. The experimental procedures and protocols adhered to Animal Ethics standards and were approved by the Animal Care and Use Committee of Wenzhou Medical University (approval no. wydw2019–650). All rats were anesthetized with sodium pentobarbital (40mg/kg, i.p) to relieve pain. The rats were killed through cervical dislocation.
Prior to the experiment in vivo, the six rats in the avitinib group were administered 30 mg/kg avitinib and 0.5% sodium carboxymethyl cellulose (CMC-Na) solution by gavage daily for 7 d. […] The supernatant was collected and stored at −80 °C. After thawing, 50 μL of plasma was extracted; 100 μL of acetonitrile solution containing midazolam (200 ng/mL) was then added to induce protein precipitation. After vortexing for 30 s and centrifuging at 13,000 rpm for 5 min, the […].
All assays were performed in triplicate, and the results are expressed as mean ± standard deviation. DAS software v. […] SPSS v. 25.0 (IBM, NY, USA) was used for data processing. Student’s t-tests were used to detect differences between groups. Differences with p < 0.05 were considered statistically significant.

SMILES: O=C(NC[C@H]1CN(c2ccc(N3CCOCC3=O)cc2)C(=O)O1)c1ccc(Cl)s1 [rivaroxaban, Rivaroxaban]
- concentration at 6 h (10 mg/kg, rivaroxaban ng/ml mean, control (rivaroxaban alone) group, mean of rats 13-18, time 6): 141 ng/mL
- concentration at 8 h (10 mg/kg, rivaroxaban ng/ml mean, control (rivaroxaban alone) group, mean of rats 13-18, time 8): 93 ng/mL
- concentration at 12 h (10 mg/kg, rivaroxaban ng/ml mean, control (rivaroxaban alone) group, mean of rats 13-18, time 12): 76.8 ng/mL
- concentration at 0.25 h (10 mg/kg, rivaroxaban ng/ml, 对照 (control, rivaroxaban alone) group, individual rats 13-18, time 0.25): 305 ng/mL
- concentration at 0.5 h (10 mg/kg, rivaroxaban ng/ml, 对照 (control, rivaroxaban alone) group, individual rats 13-18, time 0.5): 434 ng/mL
- concentration at 1 h (10 mg/kg, rivaroxaban ng/ml, 对照 (control, rivaroxaban alone) group, individual rats 13-18, time 1): 458 ng/mL
- concentration at 4 h (10 mg/kg, rivaroxaban ng/ml, 对照 (control, rivaroxaban alone) group, individual rats 13-18, time 4): 190 ng/mL
- concentration at 12 h (gefitinib group, Mean, read-out: C_last): 2070 ng/mL
- concentration at 5 min (plasma concentration of rivaroxaban, 5 min, avitinib group, Mean): 284 ng/mL
- concentration at 5 min (plasma concentration of rivaroxaban, 5 min, avitinib group, single rats No1-No6): 237 ng/mL
- concentration at 5 min (plasma concentration of rivaroxaban, 5 min, gefitinib group, Mean): 626 ng/mL
- concentration at 0.25 h (plasma concentration of rivaroxaban, 0.25 h, avitinib group, Mean): 588 ng/mL
- concentration at 0.25 h (plasma concentration of rivaroxaban, 0.25 h, gefitinib group, Mean): 1740 ng/mL
- concentration at 0.25 h (plasma concentration of rivaroxaban, 0.25 h, gefitinib group, single rats No1-No6): 1690 ng/mL
- concentration at 0.5 h (plasma concentration of rivaroxaban, 0.5 h, avitinib group, Mean): 1090 ng/mL
- concentration at 0.5 h (plasma concentration of rivaroxaban, 0.5 h, gefitinib group, Mean): 3670 ng/mL
- concentration at 0.5 h (plasma concentration of rivaroxaban, 0.5 h, gefitinib group, single rats No1-No6): 4080 ng/mL
- concentration at 1 h (plasma concentration of rivaroxaban, 1 h, avitinib group, Mean): 1730 ng/mL
- concentration at 1 h (plasma concentration of rivaroxaban, 1 h, gefitinib group, Mean): 5580 ng/mL
- concentration at 1 h (plasma concentration of rivaroxaban, 1 h, gefitinib group, single rats No1-No6): 6110 ng/mL
- concentration at 2 h (plasma concentration of rivaroxaban, 2 h, avitinib group, Mean): 1650 ng/mL
- concentration at 2 h (plasma concentration of rivaroxaban, 2 h, gefitinib group, Mean): 7180 ng/mL
- concentration at 3 h (plasma concentration of rivaroxaban, 3 h, avitinib group, Mean): 1390 ng/mL
- concentration at 3 h (plasma concentration of rivaroxaban, 3 h, gefitinib group, Mean): 7690 ng/mL
- concentration at 3 h (plasma concentration of rivaroxaban, 3 h, gefitinib group, single rats No1-No6): 6480 ng/mL
- concentration at 4 h (plasma concentration of rivaroxaban, 4 h, avitinib group, Mean): 1010 ng/mL
- concentration at 4 h (plasma concentration of rivaroxaban, 4 h, gefitinib group, Mean): 7800 ng/mL
- concentration at 4 h (plasma concentration of rivaroxaban, 4 h, gefitinib group, single rats No1-No6): 6780 ng/mL
- concentration at 6 h (plasma concentration of rivaroxaban, 6 h, avitinib group, Mean): 538 ng/mL
- concentration at 6 h (plasma concentration of rivaroxaban, 6 h, gefitinib group, Mean): 5500 ng/mL
- concentration at 6 h (plasma concentration of rivaroxaban, 6 h, gefitinib group, single rats No1-No6): 5830 ng/mL
- concentration at 8 h (plasma concentration of rivaroxaban, 8 h, avitinib group, Mean): 448 ng/mL
- concentration at 8 h (plasma concentration of rivaroxaban, 8 h, gefitinib group, Mean): 3710 ng/mL
- concentration at 8 h (plasma concentration of rivaroxaban, 8 h, gefitinib group, single rats No1-No6): 4960 ng/mL
- concentration at 12 h (plasma concentration of rivaroxaban, 12 h, avitinib group, Mean): 80.9 ng/mL
- concentration at 12 h (plasma concentration of rivaroxaban, 12 h, gefitinib group, Mean): 1640 ng/mL
- concentration at 24 h (rivaroxaban ng/ml mean, 吉非替尼 (gefitinib) group, mean (four rats), time 24): 144 ng/mL
- concentration at 5 min (rivaroxaban ng/ml mean, 吉非替尼 (gefitinib) group, mean of rats 7-12, time 0.0833): 626 ng/mL
- concentration at 0.25 h (rivaroxaban ng/ml mean, 吉非替尼 (gefitinib) group, mean of rats 7-12, time 0.25): 1740 ng/mL
- concentration at 0.5 h (rivaroxaban ng/ml mean, 吉非替尼 (gefitinib) group, mean of rats 7-12, time 0.5): 3670 ng/mL
- concentration at 1 h (rivaroxaban ng/ml mean, 吉非替尼 (gefitinib) group, mean of rats 7-12, time 1): 5580 ng/mL
- concentration at 2 h (rivaroxaban ng/ml mean, 吉非替尼 (gefitinib) group, mean of rats 7-12, time 2): 7180 ng/mL
- concentration at 3 h (rivaroxaban ng/ml mean, 吉非替尼 (gefitinib) group, mean of rats 7-12, time 3): 7690 ng/mL
- concentration at 4 h (rivaroxaban ng/ml mean, 吉非替尼 (gefitinib) group, mean of rats 7-12, time 4): 7800 ng/mL
- concentration at 6 h (rivaroxaban ng/ml mean, 吉非替尼 (gefitinib) group, mean of rats 7-12, time 6): 5500 ng/mL
- concentration at 8 h (rivaroxaban ng/ml mean, 吉非替尼 (gefitinib) group, mean of rats 7-12, time 8): 3710 ng/mL
